Values quoted from earlier work in patent US10450317B2, “Notch pathway signaling inhibitor compounds” (Eli Lilly and Company, priority 2015, dated 2019).

Legend:
auditory hair cells = settings: middle ear delivery, mice with acoustic trauma; cited from earlier work
[1] = systemic administration; cited from earlier work

SMILES: C[C@H](NC(=O)[C@@H](O)c1cc(F)cc(F)c1)C(=O)N[C@@H]1C(=O)N(C)c2ccccc2-c2ccccc21 [LY411575]
- hearing recovery by regeneration of auditory hair cells (auditory hair cells): significant, measurable, hearing recovery
- toxicity [1]: Dose limiting toxicity was shown
